Test results published in patent US8367687B2, “Pyrazole derivatives” (Novartis AG, priority 2007, dated 2013).
Like-named read-outs stand apart in the source and are kept apart here.

How the values were obtained:
[1] = molecular target: CDK4 (Homo sapiens, UniProt P11802); experiment: CDK4 HTRF; format: biochemical
[2] = molecular target: CDK2 cyA (Homo sapiens, UniProt P24941); experiment: CDK2 cyA IMAP; format: biochemical
[3] = molecular target: hCDK1/B (Homo sapiens, UniProt P06493); experiment: hCDK1/B; format: biochemical
[4] = system: p-pRb/S780; experiment: p-pRb/S780 ELISA Cellular Assay (CDK4 ELISA assay); format: cell-based; conditions: Table 2; cells treated for 24 hrs; read-out: p_pRb Cap EL/ IC50_ppRbinh
Experimental: Biological Activity p-pRb/S780 ELISA Cellular Assay
Maxisorp plates (Nunc 442404) are coated with 50 ul of 1 ug/mL total phospholated Retinoblast Protein (pRb) antibody (4H1 Cell Signaling 9309L) diluted in DPBS (Phosphate Buffered Saline) overnight at 4° C. The next day plates are blocked with Superblock in TBST (Pierce 37535) for one hour to overnight—changing block once during that time. Cells are plated at 50-60% confluency in a 96 well plate (Corning 3585) in 100 uL complete media (media containing fetal bovine serum (Gibco 1600-044), 2 mM L-Glutamine (Gibco 25030), and 1% Penicillin/Streptomycin (Gibco 15140-122) and grown overnight in a humidified chamber at 37° C. and 5% CO2. Compounds (in DMSO) are diluted in media to create a 7 point dilution series of compound with concentrations ranging from 110 uM to 0.027 uM. 10 ul of the diluted compounds are added to the cells, with final concentrations on cells ranging from 10 uM to 0.002 uM. Cells are treated for 24 hrs in a humidified chamber at 37° C. and 5% CO2. Following compound incubation, cells are lysed with 40 uL/well lysis buffer (50 mM Tris-HCL pH 7.5 (Invitrogen 15567-027), 120 mM NaCl (Promega V4221), 1 mM EDTA (Gibco 15575-038), 6 mM EGTA (Fisher 02783-100), 1% Nonidet P40 (Fluka R02771). Plates are placed on Titerplate shaker (Labline model 4625) for 5 minutes at 4° C. to lyse cells. After lysis, 10 ul of cell lysate and 50 ul 1×PBS/10% Superblock (Gibco 10010 and Pierce 37535) is added to each well of the precoated and blocked Maxisorp plate and allowed to bind at room temperature for 2 hours on Oribtron Rotator II (Boekel Industries Model 260250). Plates are then washed 3× with 1×TBST (Teknova T9201) using Biotek platewasher equipped with a Biostack. The final wash is not aspirated. The final wash is removed by flicking off and tapping plate on paper towels. ppRbS780 antibody (Cell Signaling 9307L) is diluted 1:1000 in 1×PBS/10% Superblock (Gibco 10010 and Pierce 37535) and 50 ul is added to each well. Plates are then incubated 1 hour on Oribtron Rotator II (Boekel Industries Model 260250). Plates are then washed as previously described. Goat anti-rabbit HRP (Promega W401B) is diluted 1:2500 1×PBS/10% Superblock (Gibco 10010 and Pierce 37535) and 50 ul is added to each well. Plates are then incubated 30 minutes on Oribtron Rotator II. Plates are then washed as previously described. 50 uL Ultra TMB ELISA (Pierce 34028) is then added to each well. Plates are incubated 5-20 minutes until blue color develops. 50 ul 2M Sulfuric acid (Mallinckrodt 2468-46) is then added to each well to stop the reaction. Absorbance at 450 nm for each plate is read on Spectramax Plus (Molecular Devices).

[5] = Table 2, read-out: CDK4 HTRF/ IC50
[6] = Table 2, read-out: CDK2cyA IMAP/ IC50
[7] = Table 1, read-out: CDK2 cyA IMAP

CDK4, sequence (P11802 whole entry): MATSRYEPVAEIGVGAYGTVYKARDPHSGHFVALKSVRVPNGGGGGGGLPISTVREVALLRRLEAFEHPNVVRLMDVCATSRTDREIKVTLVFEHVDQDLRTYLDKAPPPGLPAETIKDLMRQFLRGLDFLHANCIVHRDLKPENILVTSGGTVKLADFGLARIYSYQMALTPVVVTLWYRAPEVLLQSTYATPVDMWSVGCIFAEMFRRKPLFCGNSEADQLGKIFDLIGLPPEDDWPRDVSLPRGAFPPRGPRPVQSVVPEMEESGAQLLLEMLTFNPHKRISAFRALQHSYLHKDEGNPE
CDK4, sequence (P24385 whole entry partner): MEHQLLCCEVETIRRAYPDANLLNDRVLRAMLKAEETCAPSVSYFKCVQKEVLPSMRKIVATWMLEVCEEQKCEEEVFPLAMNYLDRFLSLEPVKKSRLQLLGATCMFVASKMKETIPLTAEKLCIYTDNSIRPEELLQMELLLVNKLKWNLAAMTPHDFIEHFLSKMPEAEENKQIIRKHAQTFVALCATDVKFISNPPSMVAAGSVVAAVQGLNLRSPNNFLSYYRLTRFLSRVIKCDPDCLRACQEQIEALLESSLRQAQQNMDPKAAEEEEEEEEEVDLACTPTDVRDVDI
hCDK1/B, sequence (P06493 whole entry): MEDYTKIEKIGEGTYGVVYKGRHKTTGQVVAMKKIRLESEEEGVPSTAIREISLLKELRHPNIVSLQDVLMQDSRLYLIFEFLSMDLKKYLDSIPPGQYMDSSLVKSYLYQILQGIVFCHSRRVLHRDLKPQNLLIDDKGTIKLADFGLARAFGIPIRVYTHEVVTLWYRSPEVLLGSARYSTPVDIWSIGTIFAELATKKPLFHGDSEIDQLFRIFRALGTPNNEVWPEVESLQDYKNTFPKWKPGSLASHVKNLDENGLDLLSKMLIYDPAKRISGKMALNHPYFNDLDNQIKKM
hCDK1/B, sequence (P14635 whole entry partner): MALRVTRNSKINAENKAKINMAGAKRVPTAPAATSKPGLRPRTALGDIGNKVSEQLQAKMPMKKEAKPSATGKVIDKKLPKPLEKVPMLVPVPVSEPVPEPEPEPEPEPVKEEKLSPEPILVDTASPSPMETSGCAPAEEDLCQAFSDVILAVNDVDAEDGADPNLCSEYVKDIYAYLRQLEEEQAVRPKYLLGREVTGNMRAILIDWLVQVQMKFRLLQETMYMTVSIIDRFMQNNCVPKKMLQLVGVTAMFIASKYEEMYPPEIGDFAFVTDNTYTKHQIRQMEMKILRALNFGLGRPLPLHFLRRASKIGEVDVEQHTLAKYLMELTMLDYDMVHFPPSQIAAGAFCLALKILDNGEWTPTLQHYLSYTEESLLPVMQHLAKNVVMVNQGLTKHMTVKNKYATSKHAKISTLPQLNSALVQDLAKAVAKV

| SMILES | IC50 [1, 5] [µM] | IC50 [2, 6] [µM] | IC50 ([3]; Table 2) [µM] | IC50 [4] [µM] | IC50 ([1]; Table 1, read-out: CDK4 HTRF) [µM] | IC50 [2, 7] [µM] | IC50 ([3]; Table 1) [µM] |
| --- | --- | --- | --- | --- | --- | --- | --- |
| CC(C)c1n[nH]cc1-c1ccnc(NC2CCN(Cc3ccccc3)CC2)n1 [Example 85] | < 0.05 | < 1 | < 0.5 | < 10 | – | – | – |
| CC(C)c1[nH]ncc1-c1ccnc(NC2CCN(Cc3ccccc3)CC2)c1 [Example 45] | – | – | – | – | < 0.5 | ≥ 15 | < 15 |
| Cc1cccc(CNc2cc(-c3cn[nH]c3C(C)C)ccn2)c1 [Example 49] | – | – | – | – | < 5 | < 5 | < 5 |
| CC(C)CCNc1cc(-c2cn[nH]c2C(C)C)ccn1 [Example 12] | – | – | – | – | < 1 | < 5 | < 5 |
| c1cc(-c2cn[nH]c2C2CCCC2)cc(NC2CCC2)n1 [Example 52] | – | – | – | – | < 0.5 | < 0.5 | < 5 |
| Cc1ccccc1CNc1cc(-c2cn[nH]c2C(C)(C)C)ccn1 [Example 76] | – | – | – | – | < 10 | ≥ 15 | < 15 |
| CC(C)c1[nH]ncc1-c1ccnc(NC2CCCCC2)c1 [Example 7] | – | – | – | – | < 0.5 | < 0.5 | < 1 |
| COCCCNc1cc(-c2cn[nH]c2C(C)C)ccn1 [Example 11] | – | – | – | – | < 1 | < 5 | < 5 |
| CCC(C)c1[nH]ncc1-c1ccnc(NCc2ccccc2C)c1 (stereo not drawn) [Example 81] | – | – | – | – | < 1 | < 5 | < 5 |
| CC(C)c1[nH]ncc1-c1ccnc(NCCc2ccccn2)c1 [Example 29] | – | – | – | – | < 1 | < 5 | < 10 |
| CC(C)c1[nH]ncc1-c1ccnc(NC2CCN(C)CC2)c1 [Example 78] | – | – | – | – | < 0.5 | < 15 | < 10 |
| CN1CCC(Nc2cc(-c3cn[nH]c3C(C)(C)C)ccn2)CC1 [Example 77] | – | – | – | – | < 15 | < 15 | ≥ 15 |
| CC(C)c1[nH]ncc1-c1ccnc(NCCCO)c1 [Example 23] | – | – | – | – | < 5 | < 5 | < 5 |
| c1cc(-c2cn[nH]c2C2CCCC2)cc(NC2CCCC2)n1 [Example 3] | – | – | – | – | < 0.5 | < 0.5 | < 1 |
| CC(C)c1[nH]ncc1-c1ccnc(NCC2CCCO2)c1 (stereo not drawn) [Example 13] | – | – | – | – | < 5 | < 10 | < 5 |
| c1ccc2c(c1)CC(Nc1cc(-c3cn[nH]c3C3CCCCCC3)ccn1)C2 [Example 67] | – | – | – | – | < 5 | < 1 | < 5 |
| CC(C)c1[nH]ncc1-c1ccnc(NCC2CC2)c1 [Example 8] | – | – | – | – | < 0.5 | < 5 | < 5 |
| Cc1cccc(CNc2cc(-c3cn[nH]c3C3CCCC3)ccn2)c1 [Example 62] | – | – | – | – | < 5 | < 5 | < 5 |
| CC(C)c1[nH]ncc1-c1ccnc(NCC2CCCCC2)c1 [Example 6] | – | – | – | – | < 5 | < 5 | < 5 |
| COCCNc1cc(-c2cn[nH]c2C(C)C)ccn1 [Example 5] | – | – | – | – | < 5 | < 10 | < 10 |
| Cc1ccccc1CNc1cc(-c2cn[nH]c2C(C)C)ccn1 [Example 14, [4-(5-Isopropyl-1H-pyrazol-4-yl)-pyridin-2-yl]-(2-methyl-benzyl)-amine] | – | – | – | – | < 0.1 | < 5 | < 5 |
| CC(C)c1[nH]ncc1-c1ccnc(NCc2cc(F)cc(F)c2)c1 [Example 38] | – | – | – | – | < 1 | < 5 | < 5 |

Next, values leading:

| IC50 [1, 5] [µM] | IC50 [2, 6] [µM] | IC50 ([3]; Table 2) [µM] | IC50 [4] [µM] | IC50 ([1]; Table 1, read-out: CDK4 HTRF) [µM] | IC50 [2, 7] [µM] | IC50 ([3]; Table 1) [µM] | SMILES |
| --- | --- | --- | --- | --- | --- | --- | --- |
| < 0.1 | < 0.1 | < 0.5 | < 5 | – | – | – | CC(C)CNc1nccc(-c2c[nH]nc2C(C)C)n1 [Example 163] |
| < 1 | < 5 | < 5 | < 15 | – | – | – | Cc1n[nH]cc1-c1ccnc(NCc2cc(F)cc(F)c2)n1 [Example 135] |
| < 5 | < 15 | < 15 | < 15 | – | – | – | COc1ccc(CNc2nccc(-c3c[nH]nc3C)n2)cc1 [Example 100] |
| < 0.05 | < 0.5 | < 0.5 | < 5 | – | – | – | CC(C)c1n[nH]cc1-c1ccnc(NC2Cc3ccccc3C2)n1 [Example 170] |
| < 0.05 | < 0.05 | < 0.05 | < 1 | – | – | – | CC(C)c1n[nH]cc1-c1ccnc(NC2CCCCC2)n1 [Example 166] |
| < 15 | ≥ 15 | < 5 | – | – | – | – | CC(C)c1n[nH]cc1-c1ccnc(NCc2ccccc2OC(F)(F)F)n1 [Example 158] |
| < 0.5 | ≥ 15 | < 15 | – | – | – | – | CC(C)c1n[nH]cc1-c1ccnc(NCCN2CCCCC2)n1 [Example 173] |
| < 0.5 | < 5 | < 5 | – | – | – | – | Cc1nnc(CCNc2nccc(-c3c[nH]nc3C(C)C)n2)[nH]1 [Example 161] |
| < 0.5 | < 1 | < 0.5 | – | – | – | – | Cc1ccccc1CNc1nccc(-c2c[nH]nc2C(C)C)n1 [Example 164] |
| < 1 | < 5 | < 5 | – | – | – | – | CC(C)c1n[nH]cc1-c1ccnc(N[C@H]2CCc3ccccc32)n1 [Example 175] |
| < 1 | < 5 | < 5 | – | – | – | – | CC(C)c1n[nH]cc1-c1nc(NC2CCN(C)CC2)ncc1Br [Example 180] |
| < 0.5 | < 15 | < 10 | – | – | – | – | Cc1nnc(C(C)Nc2nccc(-c3c[nH]nc3C(C)C)n2)[nH]1 (stereo not drawn) [Example 162] |
| < 1 | < 10 | < 10 | – | – | – | – | Cc1n[nH]cc1-c1ccnc(NC2CCN(Cc3ccccc3)C2)n1 (stereo not drawn) [Example 114] |
| < 1 | < 5 | < 5 | – | – | – | – | Cc1n[nH]cc1-c1ccnc(NC2CCCCCC2)n1 [Example 87] |
| < 1 | < 5 | < 5 | – | – | – | – | Cc1n[nH]cc1-c1ccnc(NC2CCCNC2)n1 (stereo not drawn) [Example 138] |
| < 1 | < 10 | < 5 | – | – | – | – | CC(C)c1n[nH]cc1-c1ccnc(NCCCN(C)C)n1 [Example 167] |
| < 10 | < 10 | < 5 | – | – | – | – | CC(C)c1n[nH]cc1-c1ccnc(N[C@@H](C)c2ccccc2)n1 [Example 182] |
| < 0.5 | < 5 | < 5 | – | – | – | – | Cc1cnc(NC2CCN(C)CC2)nc1-c1c[nH]nc1C(C)C [Example 184] |
| < 5 | < 5 | < 5 | – | – | – | – | CC(C)c1n[nH]cc1-c1ccnc(NCc2ccc(N(C)C)cc2)n1 [Example 147] |
| < 0.05 | < 0.5 | < 0.5 | – | – | – | – | CCC(C)Nc1nccc(-c2c[nH]nc2C(C)C)n1 (stereo not drawn) [Example 171] |
| < 5 | < 10 | < 15 | – | – | – | – | CC(C)c1n[nH]cc1-c1ccnc(NCCCNC2CCCCC2)n1 [Example 148] |
| < 0.5 | < 5 | < 1 | – | – | – | – | CC(C)COCCCNc1nccc(-c2c[nH]nc2C(C)C)n1 [Example 150] |
| < 0.5 | < 5 | < 5 | – | – | – | – | CC(C)c1nn(C)cc1-c1ccnc(NC2CCN(C)CC2)n1 [Example 181] |
| < 0.05 | < 5 | < 1 | – | – | – | – | CC(C)c1n[nH]cc1-c1ccnc(NC(C)c2ccccc2)n1 (stereo not drawn) [Example 168] |
| < 0.5 | ≥ 15 | < 10 | – | – | – | – | CC(CN(C)C)Nc1nccc(-c2c[nH]nc2C(C)C)n1 (stereo not drawn) [Example 143] |
| < 0.5 | < 10 | < 10 | – | – | – | – | CC(C)c1n[nH]cc1-c1ccnc(NC(C)c2ccccn2)n1 (stereo not drawn) [Example 183] |
| < 0.5 | < 1 | < 1 | – | – | – | – | COCC(C)Nc1nccc(-c2c[nH]nc2C(C)C)n1 (stereo not drawn) [Example 152] |
